Among the data in patent US20220220373A1, “FLUORESCENT PROBES FOR MONOACYLGLYCEROL LIPASE (MAGL)” (Hoffmann-La Roche Inc., priority 2019, published 2022) are IC50 values, retold here.

The assay deals with T1, MAGL (Homo sapiens, UniProt Q99685).
T1 sequence (Q99685 1-303): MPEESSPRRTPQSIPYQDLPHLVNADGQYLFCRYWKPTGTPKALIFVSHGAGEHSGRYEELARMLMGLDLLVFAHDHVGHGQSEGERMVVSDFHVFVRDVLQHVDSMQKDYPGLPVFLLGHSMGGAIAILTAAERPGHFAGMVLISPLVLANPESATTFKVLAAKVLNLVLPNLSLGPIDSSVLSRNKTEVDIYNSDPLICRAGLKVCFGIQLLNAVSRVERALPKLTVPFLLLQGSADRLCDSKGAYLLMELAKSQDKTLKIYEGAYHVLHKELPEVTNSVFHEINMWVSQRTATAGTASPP
In words: 2-AG assay (MAGL inhibitory activity, hydrolysis of 2-arachidonoylglycerol followed by mass spectrometry). To be noted: 50 pM MAGL, 8 μM 2-arachidonoylglycerol, 15 min pre-incubation, 30 min incubation at RT. In kind it is biochemical. The method, then:
Compounds were profiled for MAGL inhibitory activity by determining the enzymatic activity by following the hydrolysis of the natural substrate 2-arachidonoylglycerol (2-AG) resulting in arachidonic acid, which can be followed by mass spectrometry. This assay is hereinafter abbreviated “2-AG assay”.
The 2-AG assay was carried out in 384 well assay plates (PP, Greiner Cat#784201) in a total volume of 20 μL. Compound dilutions were made in 100% DMSO (VWR Chemicals 23500.297) in a polypropylene plate in 3-fold dilution steps to give a final concentration range in the assay from 12.5 μM to 0.8 pM. […] compound dilutions (100% DMSO) were added to 9 μL MAGL in assay buffer (50 mM TRIS (GIBCO, 15567-027), 1 mM EDTA (Fluka, 03690-100 mL), 0.01% (v/v) Tween. After shaking, the plate was incubated for 15 min at RT. To start the reaction, 10 μL 2-arachidonoylglycerol in assay buffer was added. The final concentrations in the assay was 50 pM MAGL and 8 μM 2-arachidonoylglyerol. After shaking and 30 min incubation at RT, the reaction was quenched by the addition of […] of ACN containing 4 μM of d8-arachidonic acid. The amount of arachidonic acid was traced by an online SPE system (Agilent Rapidfire) coupled to a triple quadrupole mass spectrometer (Agilent 6460). A C18 SPE cartridge (G9205A) was used in an ACN/water liquid setup. The mass spectrometer was operated in negative electrospray mode following the mass transitions 303.1→259.1 for arachidonic acid and 311.1→267.0 for d8-arachidonic acid. The activity of the compounds was calculated based on the ratio of intensities [arachidonic acid/d8-arachidonic acid].
What is called IC50 is the concentration that gives 50% inhibition. Low readings indicate greater potency in that assay, high ones weaker potency in that assay. For the compound `CC(C)(C)OC(=O)NCCOc1cccc(C(c2ccccc2)C2CCN(C(=O)N3CC[C@@H]4OCC(=O)N[C@@H]4C3)CC2)c1` (single isomer, unassigned) [Example 4, tert-Butyl N-[2-[3-[(R or S)-[1-[(4aR,8aS)-3-oxo-4,4a,5,7,8,8a-hexahydropyrido[4,3-b][1,4]oxazine-6-carbonyl]-4-piperidyl]-phenyl-methyl]phenoxy]ethyl]carbamate], the IC50 worked out at 0.3 nM. In other words, the sub-nanomolar range.
Then `CC(C)(C)OC(=O)NCCOc1cccc(C(c2ccccc2)C2CCN(C(=O)N3CC[C@@H]4OCC(=O)N[C@@H]4C3)CC2)c1` (single isomer, unassigned) [Example 5, tert-Butyl N-[2-[3-[(S or R)-[1-[(4aR,8aS)-3-oxo-4,4a,5,7,8,8a-hexahydropyrido[4,3-b][1,4]oxazine-6-carbonyl]-4-piperidyl]-phenyl-methyl]phenoxy]ethyl]carbamate], with 0.2 nM; and `NCCOc1cccc(C(c2ccccc2)C2CCN(C(=O)N3CC[C@@H]4OCC(=O)N[C@@H]4C3)CC2)c1` (single isomer, unassigned) [Example 6, (4aR,8aS)-6-[4-[(S or R)-[3-(2-Aminoethoxy)phenyl]-phenyl-methyl]piperidine-1-carbonyl]-4,4a,5,7,8,8a-hexahydropyrido[4,3-b][1,4]oxazin-3-one], with 5.3 nM.
For `NCCOc1cccc(C(c2ccccc2)C2CCN(C(=O)N3CC[C@@H]4OCC(=O)N[C@@H]4C3)CC2)c1` (single isomer, unassigned) [Example 7, (4aR,8aS)-6-[4-[(R or S)-[3-(2-Aminoethoxy)phenyl]-phenyl-methyl]piperidine-1-carbonyl]-4,4a,5,7,8,8a-hexahydropyrido[4,3-b][1,4]oxazin-3-one] the value was 48.5 nM.
On to `CC(C)(C)OC(=O)NCCOCCOCCC(=O)NCCOc1cccc([C@H](c2ccccc2)C2CCN(C(=O)N3CC[C@@H]4OCC(=O)N[C@@H]4C3)CC2)c1` (single isomer, unassigned) [Example 8, tert-Butyl N-[2-[2-[3-[2-[3-[(S or R)-11-1(4aR,8aS)-3-oxo-4,4a,5,7,8,8a-hexahydropyrido[4,3-b][1,4]oxazine-6-carbonyl]-4-piperidyl]-phenyl-methyl]phenoxy]ethylamino]-3-oxo-propoxy]ethoxy]ethyl]carbamate], for which the IC50 was found to be 1.5 nM.
Turning to `CC(C)(C)OC(=O)NCCOCCOCCC(=O)NCCOc1cccc(C(c2ccccc2)C2CCN(C(=O)N3CC[C@@H]4OCC(=O)N[C@@H]4C3)CC2)c1` (single isomer, unassigned) [Example 9, tert-Butyl N-[2-[2-[3-[2-[3-[(R or S)-[1-[(4aR,8aS)-3-oxo-4,4a,5,7,8,8a-hexahydropyrido[4,3-b][1,4]oxazine-6-carbonyl]-4-piperidyl]-phenyl-methyl]phenoxy]ethylamino]-3-oxo-propoxy]ethoxy]ethyl]carbamate], the IC50 turned out to be 2.6 nM.
Then `NCCOCCOCCC(=O)NCCOc1cccc(C(c2ccccc2)C2CCN(C(=O)N3CC[C@@H]4OCC(=O)N[C@@H]4C3)CC2)c1` (single isomer, unassigned) [Example 10, N-[2-[3-[(R or S)-[1-[(4aR,8aS)-3-Oxo-4,4a,5,7,8,8a-hexahydropyrido[4,3-b][1,4]oxazine-6-carbonyl]-4-piperidyl]-phenyl-methyl]phenoxy]ethyl]-3-[2-(2-aminoethoxy)ethoxy]propanamide], with 7.8 nM.
Take `NCCOCCOCCC(=O)NCCOc1cccc(C(c2ccccc2)C2CCN(C(=O)N3CC[C@@H]4OCC(=O)N[C@@H]4C3)CC2)c1` (single isomer, unassigned) [Example 11, N-[2-[3-[(S or R)-[1-[(4aR,8aS)-3-Oxo-4,4a,5,7,8,8a-hexahydropyrido[4,3-b][1,4]oxazine-6-carbonyl]-4-piperidyl]-phenyl-methyl]phenoxy]ethyl]-3-[2-(2-aminoethoxy)ethoxy]propanamide]: the IC50 is 2930 nM.
